From BindingDB's records for patent US12466809 (Dana-Farber Cancer Institute, 2025) come the findings set out here.

The experiment deals with Cyclin-A2/Cyclin-dependent kinase 2 (Homo sapiens, UniProt P24941). The experiment in a line: Biochemical Assay. The source says:
CDK2 and CDK5 IC50 data were attained through the use of Invitrogen™ commercial assays. The method for CDK2 (assay ID: 315, kinase|Z'-LYTE™|CDK2/Cyclin A|Km app) used a 10-point titration. The method for CDK5 (assay ID: 318, kinase|Z'-LYTE™|CDK5/p25|Km app) used a 10-point titration. All the bifunctional compounds showed potent biochemical inhibition on both CDK2/5 enzymes.

As a reminder, the IC50 is the concentration that inhibits the measured activity by half. A high value points to weaker potency in that assay. `NC(=O)c1c(F)cccc1Nc1nc(NC2CCN(S(=O)(=O)CCNC(=O)CCCCCCCCC#Cc3cccc4c3CN(C3CCC(=O)NC3=O)C4=O)CC2)ncc1Br` (stereo unspecified) [US12466809, Compound 14] displayed a concentration for half-maximal inhibition (IC50) of 57.2 nM.

Regarding `Cc1ncsc1-c1ccc([C@H](C)NC(=O)[C@@H]2C[C@@H](O)CN2C(=O)[C@@H](NC(=O)CCOCCOCCC(=O)NCCS(=O)(=O)N2CCC(Nc3ncc(Br)c(Nc4cccc(F)c4C(N)=O)n3)CC2)C(C)(C)C)cc1` [US12466809, Compound 11], the IC50 is 6.8 nM.

`O=C(CCCCCCCCC#Cc1cccc2c1CN(C1CCC(=O)NC1=O)C2=O)NCCS(=O)(=O)N1CCC(Nc2ncc(Br)c(Nc3cccc4c3OCO4)n2)CC1` (stereo unspecified) [US12466809, Compound 16]: the IC50 was above 370 nM.

On to `NC(=O)c1c(F)cccc1Nc1nc(NC2CCN(S(=O)(=O)CCNC(=O)CCCCCCCCCCc3cccc4c3CN(C3CCC(=O)NC3=O)C4=O)CC2)ncc1Br` (stereo unspecified) [US12466809, Compound 15], for which the IC50 turned out to be 50 nM.

The compound `Cc1ncsc1-c1ccc([C@H](C)NC(=O)[C@@H]2C[C@@H](O)CN2C(=O)[C@@H](NC(=O)CCC(=O)NCCS(=O)(=O)N2CCC(Nc3ncc(Br)c(Nc4cccc(F)c4C(N)=O)n3)CC2)C(C)(C)C)cc1` [US12466809, Compound 12] gave an IC50 of 5.3 nM.

For the compound `NC(=O)c1c(F)cccc1Nc1nc(NC2CCN(S(=O)(=O)CCNC(=O)CCC(=O)NCCCCCNc3cccc4c3C(=O)N(C3CCC(=O)NC3=O)C4=O)CC2)ncc1Br` (stereo unspecified) [US12466809, Compound 13], it took 3.8 nM to reach half-maximal inhibition (IC50).
